Type in all cases: biochemical
One assay concerns the target T1, human JAK2 (Homo sapiens, UniProt O60674).
T1 construct: The kinase domain of human JAK2 was amplified from U937mRNA; His tag (pFastBac HTc vector; nickel chelate purification) (N); made in house; host or cells: baculovirus; Sf9 for virus, High Five insect cells for production
Briefly: JAK kinase assay (ELISA or Alphascreen), Jak2. As to conditions: standard conditions, read-out: Jak2 inhibition of enzyme activity. From the text: The kinase domain of human JAK2 was amplified from U937mRNA using the polymerase chain reaction with the following primers: […]
JAK2 PCR products were cloned into the pFastBac HTc expression vector (Gibco) via the Sal I and Not I sites. The JAK2 plasmid was then transformed into competent DHL10Bac cells (Gibco), and the recombinant baculovirus produced prepared for transfection into Sf9 insect cells.
(§1) Baculovirus preparations from each of the JAK family members were infected into five litres of High Five cells (Invitrogen) grown in High Five serum free medium (Invitrogen) to a cell density of approximately 1-2×10^6 cells/ml. Cells are infected with virus at a MOI of 0.8-3.0. Cells were harvested and lysed. JAK kinase domains were purified by affinity chromatography on a Probond (Invitrogen) nickel chelate affinity column.
(§2) Kinase assays were performed either in a 96 well capture-based ELISA assay or in 384 well Optiplates (Packard) using an Alphascreen Protein Tyrosine Kinase kit. In either case using approximately 15 μg of affinity purified PTK domain in the presence of 50 mM HEPES, pH 7.5, 10 mM MgCl2 150 mM NaCl and 10 μM-1 mM ATP. The biotinylated substrate biotin-EGPWLEEEEEAYGWMDF-NH2 (final concentration 5 μM) was used as substrate. In the ELISA assay tyrosine phosphorylation was quantitated following transfer to an avidin coated ELISA plate using peroxidase-linked anti-phospho-tyrosine antibody PY20. In the Alphascreen assay, Alphascreen phosphotyrosine acceptor beads followed by streptavidin donor beads were added under subdued light. The ELISA plates were read on a BMG Fluorostar, the Alphascreen plates were read on a Packard Fusion Alpha. Inhibitors were added to the assays fifteen minutes prior to the addition of ATP. Inhibitors were added in aqueous DMSO, with DMSO concentrations never exceeding 1%.
A general note: In an ELISA, binding on a coated surface is turned into a signal by an enzyme label.

The next assay has as its target T2, human JAK3 (Homo sapiens, UniProt P52333).
T2 construct: The kinase domain of human JAK3 was amplified from U937mRNA; His tag (pFastBac HTb vector; nickel chelate purification) (N); made in house; host or cells: baculovirus; Sf9 for virus, High Five insect cells for production
Description: JAK kinase assay (ELISA or Alphascreen), Jak3. As to conditions: standard conditions, read-out: Jak3 inhibition of enzyme activity.
Excerpt: The kinase domain of human JAK3 was amplified from U937mRNA using the polymerase chain reaction with the following primers: […]
JAK3 PCR products were cloned into the pFastBac HTb expression vector (Gibco) via the Xho I and Kpn I sites. The JAK3 plasmid was then transformed into competent DH10Bac cells (Gibco), and the recombinant baculovirus produced prepared for transfection into Sf9 insect cells.
as §1, §2

In the next assay the target is T3, abl (Homo sapiens, UniProt P00519).
T3 sequence (P00519 242-493 limits assumed): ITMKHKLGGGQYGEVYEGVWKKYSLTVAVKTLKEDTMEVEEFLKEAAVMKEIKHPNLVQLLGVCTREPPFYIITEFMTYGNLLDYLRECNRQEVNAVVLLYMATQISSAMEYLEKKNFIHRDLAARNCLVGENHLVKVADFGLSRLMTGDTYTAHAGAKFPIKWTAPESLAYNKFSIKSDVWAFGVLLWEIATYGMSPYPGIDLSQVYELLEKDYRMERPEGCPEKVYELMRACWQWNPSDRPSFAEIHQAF
Description: Kinase assay (ELISA or Alphascreen), abl. As to conditions: standard conditions, read-out: abl inhibition of enzyme activity. The method, then:
as §2

The target of another assay is T4, zap70 (Homo sapiens, UniProt P43403).
T4 sequence (P43403 338-600 limits assumed): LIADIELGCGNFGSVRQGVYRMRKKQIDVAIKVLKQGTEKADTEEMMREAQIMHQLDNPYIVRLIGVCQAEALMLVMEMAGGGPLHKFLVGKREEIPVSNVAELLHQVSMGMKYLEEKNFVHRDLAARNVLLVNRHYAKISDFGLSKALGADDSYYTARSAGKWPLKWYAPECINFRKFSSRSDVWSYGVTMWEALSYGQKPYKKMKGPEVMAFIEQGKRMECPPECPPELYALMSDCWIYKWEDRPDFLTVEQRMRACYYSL
Briefly: Kinase assay (ELISA or Alphascreen), zap70. As to conditions: standard conditions, read-out: zap70 inhibition of enzyme activity. The protocol:
as §2

A further assay has as its target T5, fms (Homo sapiens, UniProt P07333).
T5 sequence (P07333 582-910 limits assumed): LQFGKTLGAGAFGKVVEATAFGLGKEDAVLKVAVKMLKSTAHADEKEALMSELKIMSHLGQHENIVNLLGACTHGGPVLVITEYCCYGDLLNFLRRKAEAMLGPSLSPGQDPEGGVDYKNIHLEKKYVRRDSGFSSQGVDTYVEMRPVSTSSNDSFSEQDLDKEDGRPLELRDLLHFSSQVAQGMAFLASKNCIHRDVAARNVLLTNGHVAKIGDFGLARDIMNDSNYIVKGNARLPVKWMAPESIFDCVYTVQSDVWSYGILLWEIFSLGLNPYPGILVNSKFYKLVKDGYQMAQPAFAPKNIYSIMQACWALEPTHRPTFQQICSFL
Briefly: Kinase assay (ELISA or Alphascreen), fms. As to conditions: standard conditions, read-out: fms inhibition of enzyme activity. The method, then:
as §2

For the next assay, the target named is hck (Homo sapiens, UniProt P08631). Description: Kinase assay (ELISA or Alphascreen), hck. The following applies: standard conditions, read-out: hck inhibition of enzyme activity. The protocol:
as §2

A further assay addresses btk (Homo sapiens, UniProt Q06187). Briefly: Kinase assay (ELISA or Alphascreen), btk. As to conditions: standard conditions, read-out: btk inhibition of enzyme activity. The method, then:
as §2

In the next assay the target is kdr (Homo sapiens, UniProt P35968). Description: Kinase assay (ELISA or Alphascreen), kdr. The following applies: standard conditions, read-out: kdr inhibition of enzyme activity. The method, then:
as §2

Structures are written as SMILES. Some results are limits rather than exact numbers.

The term inhibition denotes the change of the read-out against control, counted positive when it falls.

T1 sequence (O60674 849-1124 limits assumed): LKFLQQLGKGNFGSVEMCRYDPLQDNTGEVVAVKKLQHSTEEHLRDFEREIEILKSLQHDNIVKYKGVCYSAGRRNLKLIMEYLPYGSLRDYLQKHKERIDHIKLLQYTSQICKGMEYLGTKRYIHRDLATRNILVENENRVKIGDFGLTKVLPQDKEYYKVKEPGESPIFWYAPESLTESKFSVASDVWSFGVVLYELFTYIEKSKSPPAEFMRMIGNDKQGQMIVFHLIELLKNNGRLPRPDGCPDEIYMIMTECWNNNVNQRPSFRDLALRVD
T2 sequence (P52333 822-1111 limits assumed): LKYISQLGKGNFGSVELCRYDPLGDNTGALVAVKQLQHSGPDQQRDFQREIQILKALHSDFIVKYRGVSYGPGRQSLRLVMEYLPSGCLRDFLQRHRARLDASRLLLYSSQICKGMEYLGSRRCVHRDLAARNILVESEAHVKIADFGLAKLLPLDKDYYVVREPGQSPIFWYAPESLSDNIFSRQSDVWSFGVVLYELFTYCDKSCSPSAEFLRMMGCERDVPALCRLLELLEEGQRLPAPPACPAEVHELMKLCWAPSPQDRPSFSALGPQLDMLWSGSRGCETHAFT
Sequence of hck (P08631 262-515 limits assumed, species assumed): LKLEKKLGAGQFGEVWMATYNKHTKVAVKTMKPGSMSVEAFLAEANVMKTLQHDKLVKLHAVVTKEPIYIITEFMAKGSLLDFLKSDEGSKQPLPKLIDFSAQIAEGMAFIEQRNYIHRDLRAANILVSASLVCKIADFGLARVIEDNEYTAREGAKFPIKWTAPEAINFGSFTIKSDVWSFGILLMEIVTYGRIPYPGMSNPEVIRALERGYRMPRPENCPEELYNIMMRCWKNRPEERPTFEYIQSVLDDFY
Sequence of kdr (P35968 834-1162 limits assumed, species assumed): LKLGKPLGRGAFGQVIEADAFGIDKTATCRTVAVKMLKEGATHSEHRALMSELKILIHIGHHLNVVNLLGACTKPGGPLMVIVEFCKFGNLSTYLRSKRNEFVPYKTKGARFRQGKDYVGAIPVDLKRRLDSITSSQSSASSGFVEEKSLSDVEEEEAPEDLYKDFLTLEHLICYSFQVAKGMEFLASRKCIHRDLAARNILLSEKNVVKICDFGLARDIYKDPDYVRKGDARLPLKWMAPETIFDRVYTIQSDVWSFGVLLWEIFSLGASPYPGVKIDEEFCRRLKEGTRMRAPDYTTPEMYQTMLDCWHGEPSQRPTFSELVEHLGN
Sequence of btk (Q06187 402-655 limits assumed, species assumed): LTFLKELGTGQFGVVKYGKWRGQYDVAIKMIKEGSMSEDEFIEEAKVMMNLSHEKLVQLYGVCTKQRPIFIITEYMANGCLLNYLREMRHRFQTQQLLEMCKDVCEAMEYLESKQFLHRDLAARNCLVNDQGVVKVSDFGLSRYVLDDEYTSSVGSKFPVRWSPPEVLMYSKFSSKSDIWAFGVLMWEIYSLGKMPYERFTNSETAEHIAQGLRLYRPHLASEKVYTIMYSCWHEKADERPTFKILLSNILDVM

Consider `COc1cc(-c2cncc(-n3cnc4ccccc43)n2)ccc1O`, for which the inhibition at 20 µM on human JAK2 is less than 50%; on human JAK3, less than 50%; at abl, not below 50%.
Take `CC[C@H](Nc1cncc(-n2cnc3ccccc32)n1)c1ccccc1`: the inhibition at 20 µM is not below 50% on human JAK2, less than 50% on human JAK3, not below 50% on zap70 and not below 50% at abl.
Consider `CC(Nc1cncc(-n2cnc3cc(C#N)ccc32)n1)c1cccc2ccccc12` (stereo not drawn), for which the inhibition at 20 µM is less than 50% at human JAK2, less than 50% on human JAK3 and not below 50% on fms.
For the compound `C[C@H](Nc1cncc(-n2cnc3ccc(CO)cc32)n1)c1ccc(F)cc1`, the inhibition at 20 µM was not below 50% at human JAK2, less than 50% on human JAK3, not below 50% at hck and not below 50% on btk.
For `CC1CC(Nc2cncc(-n3cnc4cc(C#N)ccc43)n2)c2ccccc21` (stereo not drawn), the inhibition at 20 µM on human JAK2, at human JAK3 and on fms was not below 50% throughout.
For the compound `CCNC(=O)Nc1ccc2c(c1)ncn2-c1cncc(N[C@@H](C)c2ccccc2)n1`, the inhibition at 20 µM was not below 50% on human JAK2, less than 50% at human JAK3 and not below 50% on fms.
Regarding `C[C@H](Nc1cncc(-n2cnc3cc(C(=O)NCCCCN4CCOCC4)ccc32)n1)c1ccccc1`, the inhibition at 20 µM at human JAK2 was not below 50%; on human JAK3, less than 50%; at zap70, not below 50%; at abl it was not below 50%.
Consider `C[C@H](Nc1cncc(-n2cnc3cc(NC(=O)N4CCN(C)CC4)ccc32)n1)c1ccccc1`, for which the inhibition at 20 µM at human JAK2 was not below 50%; on human JAK3 it was less than 50%; on zap70, not below 50%; at hck, not below 50%; on abl it was not below 50%; at kdr it was not below 50%.
With `CC(Nc1cncc(-n2cnc3cc(C#N)ccc32)n1)c1ccccc1F` (stereo not drawn), the inhibition at 20 µM at human JAK2, at human JAK3 and at fms was not below 50% throughout.
In the case of `CC(Nc1cncc(-n2cnc3ccc(C#N)cc32)n1)c1cccnc1` (stereo not drawn), the inhibition at 20 µM on human JAK2 is less than 50%; at human JAK3, less than 50%; at abl, not below 50%.

These data come from patent US7737143B2, “Substituted pyrazines as kinase inhibitors” (YM Biosciences Australia Pty Ltd, priority 2003, dated 2010).
